{
  "source": "paper PMC7821381",
  "about": "“Multi-Targeted Anticancer Activity of Imidazolate Phosphane Gold(I) Compounds by Inhibition of DHFR and TrxR in Breast Cancer Cells” (Frontiers in Chemistry, 2021)",
  "key": {"Human apoTF (ATF)": {"biological_target": "T1, Human apoTF (ATF) (Homo sapiens, UniProt P02787)", "T1 construct": "purchased Sigma Aldrich", "T1 sequence (P02787 20-698)": "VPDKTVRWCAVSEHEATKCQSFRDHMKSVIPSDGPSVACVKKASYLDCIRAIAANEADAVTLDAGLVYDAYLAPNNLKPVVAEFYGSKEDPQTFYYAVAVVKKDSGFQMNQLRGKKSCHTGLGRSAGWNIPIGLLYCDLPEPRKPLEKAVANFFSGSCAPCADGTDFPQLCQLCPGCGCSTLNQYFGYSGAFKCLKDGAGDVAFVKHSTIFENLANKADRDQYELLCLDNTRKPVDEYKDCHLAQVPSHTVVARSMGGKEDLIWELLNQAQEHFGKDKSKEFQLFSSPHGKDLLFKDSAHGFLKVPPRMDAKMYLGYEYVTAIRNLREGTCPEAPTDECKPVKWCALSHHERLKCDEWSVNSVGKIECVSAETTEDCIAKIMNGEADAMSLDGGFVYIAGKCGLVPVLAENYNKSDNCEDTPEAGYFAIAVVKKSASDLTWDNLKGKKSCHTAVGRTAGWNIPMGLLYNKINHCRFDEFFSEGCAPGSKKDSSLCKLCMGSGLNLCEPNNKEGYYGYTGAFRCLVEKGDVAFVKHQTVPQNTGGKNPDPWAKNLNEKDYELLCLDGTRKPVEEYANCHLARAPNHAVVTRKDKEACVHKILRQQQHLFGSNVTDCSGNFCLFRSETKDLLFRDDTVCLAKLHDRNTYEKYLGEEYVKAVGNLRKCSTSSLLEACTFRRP", "assay": "Transferrin (ATF) fluorescence quenching", "type": "binding", "conditions": "Stern-Volmer constant, Tris-HCl pH 7.4, 25°C", "protocol": "Human apoTF (ATF) was purchased from Sigma Aldrich and its concentration was determined by measuring the absorbance at 278 nm (ε = 92,300 M^−1 cm^−1). To evaluate if compounds 5 and 6 were able to bind to ATF in vitro, fluorescence spectra were recorded from 300 nm to 450 nm upon tryptophan excitation at 285 nm. Fluorimetric titrations were performed by titrating a 2 mL sample (prepared in 10 mM Tris-HCl buffer pH 7.4, 10 mM NaCl) containing human ATF (12.5 μM) with incremental additions of different aliquots of gold-complexes (5 mM in DMSO). Protein fluorescence intensity was recorded after each successive addition of complex solution and equilibration (5 min). The value of Stern Volmer constants of the different metal complexes to ATF were evaluated following Equation 3 and fluorescent values were corrected by Equation 2. All titrations were performed at room temperature (25°C) and averages between two trials are reported."}, "SKBR3 cells": {"system": "SKBR3 cells", "assay": "MTT cell viability assay on SKBR3 cells", "type": "cell-based, human", "conditions": "for IC50: SKBR3, 48 h, ± S. D.; for cytotoxic activity in MTT screening: SKBR3 cells, 72 h (Figure 1S) and 48 h (Figure 2)", "text": "(§1) Human MDA-MB-231 (ER–/PR–/HER2–) and SK-BR-3 (ER–/PR–/HER2+) cells were obtained from American Type Culture Collection (Rockville, MD) and cultured in Dulbecco's Modified Essential Medium (DMEM, Gibco, Life Technologies) supplemented with 10% fetal bovine serum (FBS, Gibco, Life Technologies) and 1% penicillin–streptomycin (Gibco, Life Technologies). A17 cells were established from a spontaneous lobular carcinoma that arose in an FVB/neuT mouse (Galiè et al., [2005]), and maintained in DMEM plus 20% FBS and 1% penicillin-streptomycin. Cells were cultured at 37°C under humidified atmosphere with 5% CO2.\n(§2) Stock solutions were prepared for each gold(I) compound (50 mM) using dimethyl sulfoxide (DMSO) (Sigma-Aldrich) as solvent. The effects of gold(I) compounds on SKBR3, A17 and MDA-MB231 cells viability were evaluated by seeding, respectively, 10, ^*10^3, 2.5 ^*10^3, 7, ^*10^3 cells/well in 96 wells plates in complete medium (DMEM supplemented with FBS) and compared to those of cisplatin. The day after, fresh medium containing vehicle alone (DMSO, 1 % v/v final concentration) or increasing concentrations of each compound ranging from 0.1 to 100 μM was added. Cell viability was determined using a MTT [3-(4,5-dimethylthiazol-2-yl)-2,5-diphenyl-2H-tetrazolium bromide Sigma Aldrich, St. Louis, MO] assay, which is based on the conversion of MTT to formazan crystals by mitochondrial enzymes, after 24, 48, and 72 h. The formazan deposits were dissolved in DMSO and the absorbance of each well was measured at 540 nm in Multiskan Ascent 96/384 Plate Reader. Each drug concentration was evaluated with 8 replicates and each experiment was repeated three times. At the end of the experiments a dose–response curve was plotted, and the IC50 concentrations were determined. Statistical analysis was performed using One-Way ANOVA analysis of variance followed by Dunnett's Multiple Comparison Test. Quantitative data are presented as means ± SEM. Differences were considered significant at ^*P ≤ 0.0332; ^**P ≤ 0.0021; ^***P ≤ 0.0002; ^****P ≤ 0.0001.\n(§3) IC50 values were calculated for each of the cell lines tested, by fitting the concentration-effect curves data obtained in the three experiments with the sigmoid-Emax model using nonlinear regression, weighted by the reciprocal of the square of the predicted effect."}, "A17 cells": {"system": "A17 cells", "assay": "MTT cell viability assay on A17 cells", "type": "cell-based, murine", "conditions": "A17, 48 h, ± S. D.", "text": "as §1\nas §2, with “Statistical analysis was performed using One-Way ANOVA analysis of variance followed by Dunnett's Multiple Comparison Test.” left out, “Differences were considered significant at ^*P ≤ 0.0332; ^**P ≤ 0.0021; ^***P ≤ 0.0002; ^****P ≤ 0.0001.” left out\nas §3"}, "[1]": {"biological_target": "T2, bovine serum albumin (BSA) (Bos taurus, UniProt P02769)", "T2 construct": "purchased Sigma Aldrich", "T2 sequence (P02769 25-607)": "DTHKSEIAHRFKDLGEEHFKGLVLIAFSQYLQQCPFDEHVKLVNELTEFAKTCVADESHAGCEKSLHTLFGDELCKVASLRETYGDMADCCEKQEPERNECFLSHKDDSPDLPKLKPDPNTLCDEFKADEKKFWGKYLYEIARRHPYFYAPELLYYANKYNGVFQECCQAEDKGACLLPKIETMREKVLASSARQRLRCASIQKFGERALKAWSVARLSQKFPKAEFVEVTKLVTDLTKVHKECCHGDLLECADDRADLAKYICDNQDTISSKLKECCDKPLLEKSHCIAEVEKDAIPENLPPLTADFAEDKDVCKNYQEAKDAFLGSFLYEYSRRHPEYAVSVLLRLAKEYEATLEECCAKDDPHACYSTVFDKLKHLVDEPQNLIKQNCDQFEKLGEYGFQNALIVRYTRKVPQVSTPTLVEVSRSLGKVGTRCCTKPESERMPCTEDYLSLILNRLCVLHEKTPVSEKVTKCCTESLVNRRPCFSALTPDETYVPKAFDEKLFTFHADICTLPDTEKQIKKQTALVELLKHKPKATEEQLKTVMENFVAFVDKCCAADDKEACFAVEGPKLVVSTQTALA", "assay": "BSA tryptophan fluorescence quenching", "type": "binding", "conditions": "Stern-Volmer constant, Tris-HCl pH 7.4, room temperature", "protocol": "The protein-binding studies were performed by tryptophan fluorescence quenching experiments using bovine serum albumin (BSA) from Sigma Aldrich prepared in 10 mM Tris-HCl buffer pH 7.4, 10 mM NaCl. The concentration was determined by measuring the absorbance at 280 nm. Assuming a molecular weight of 66,400 and a molar extinction coefficient at 280 nm of 43,824 M^−1 cm^−1. Fluorescence measurements were recorded on a Hitachi 4,500 spectrofluorometer by keeping the concentration of BSA constant (15 × 10^−6 M) while increasing compounds 5 or 6 concentrations (5 mM in DMSO) were added to protein solution at room temperatures. Protein fluorescence intensity was recorded after each successive addition of gold compound solution and equilibration (ca. 5 min). Fluorescence spectra were recorded from 300 to 450 nm at an excitation wavelength of 285 nm. The value of Stern Volmer constants of the different metal complexes to BSA was evaluated following Equation 3 and fluorescent values were corrected by Equation 2.\nProtein fluorescence intensity was recorded after each successive addition of complex solution and equilibration (ca. 5 min). Fluorescence spectra were recorded from 300 to 450 nm at an excitation wavelength of 285 nm. The value of Stern Volmer constants of the different metal complexes to BSA were evaluated following the equation 3 and fluorescent values were corrected by equation 2."}, "[2]": {"system": "thioredoxin reductase (TrxR)", "conditions": "MDA-MB231, 12 h treatment, 16 μM (maximum inhibition); control 3.01 ± 0.01", "protocol": "The assay was performed as previously reported (Galassi et al., [2012]) in 0.2 M Na, K-phosphate buffer (pH 7.4) containing 2 mM EDTA. The assay contained 0.12 mM NADPH and different amounts of cell lysate. The reaction was initiated by the addition of 3 mM 5,5′-dithiobis (2-nitrobenzoic acid) (DTNB) and the increase of absorbance was monitored at 412 nm over 5 min at 25°C.\nFig. 4S. Effects of gold(I) compounds 5 and 6 on redox enzyme thioredoxine reductase in MDA-MB231 cancer cells. The cells were incubated for 12 hours with different amount of tested compounds 5 and 6. After incubation, cells were washed twice with PBS and lysed. TrxR activity was tested by measuring NADPH-dependent reduction of DTNB (Galassi et al, 2012)."}, "MDA-MB231 cells": {"system": "MDA-MB231 cells", "assay": "MTT cell viability assay on MDA-MB231 cells", "type": "cell-based, human", "conditions": "MDA-MB231, 48 h, ± S. D.", "text": "as §1\nas §2, with “Statistical analysis was performed using One-Way ANOVA analysis of variance followed by Dunnett's Multiple Comparison Test.” left out, “Differences were considered significant at ^*P ≤ 0.0332; ^**P ≤ 0.0021; ^***P ≤ 0.0002; ^****P ≤ 0.0001.” left out\nas §3"}},
  "data": [
    {"substance": "4,5-dicyano-imidazolate-1yl-gold(I)-(triphenylphosphane) [Compound 5]", "values": [
      {"measurement": "ATF Ksv", "setting": "Human apoTF (ATF)", "result": "1.93 ± 0.44 10^4 M^−1"},
      {"measurement": "IC50", "setting": "SKBR3 cells", "result": "5.36 ± 0.35", "unit": "µM"},
      {"measurement": "cytotoxic activity in MTT screening", "setting": "SKBR3 cells", "result": "most active"},
      {"measurement": "IC50", "setting": "A17 cells", "result": "16.2 ± 0.59", "unit": "µM"},
      {"measurement": "BSA Ksv", "setting": "[1]", "result": "2.46 ± 0.82 10^4 M^−1"},
      {"measurement": "Specific enzymatic activity of TrxR", "setting": "[2]", "result": "1.59 ± 0.03 (16 μM) mU/mg"},
      {"measurement": "IC50", "setting": "MDA-MB231 cells", "result": "7.03 ± 0.76", "unit": "µM"}
    ]},
    {"substance": "4,5-dichloro-imidazolate-1yl-gold(I)-(triphenylphosphane) [Compound 6]", "values": [
      {"measurement": "ATF Ksv", "setting": "Human apoTF (ATF)", "result": "1.51 ± 0.55 10^4 M^−1"},
      {"measurement": "IC50", "setting": "SKBR3 cells", "result": "4.55 ± 0.25", "unit": "µM"},
      {"measurement": "cytotoxic activity in MTT screening", "setting": "SKBR3 cells", "result": "most active"},
      {"measurement": "IC50", "setting": "A17 cells", "result": "14.4 ± 0.7", "unit": "µM"},
      {"measurement": "BSA Ksv", "setting": "[1]", "result": "2.04 ± 0.71 10^4 M^−1"},
      {"measurement": "Specific enzymatic activity of TrxR", "setting": "[2]", "result": "1.95 ± 0.06 (16 μM) mU/mg"},
      {"measurement": "IC50", "setting": "MDA-MB231 cells", "result": "3.46 ± 0.29", "unit": "µM"}
    ]}
  ]
}
